Test results as given in ChEMBL document CHEMBL1158950, “New Sesquiterpenes from Xanthium catharticum” (J Nat Prod, 1991).
Activity calls are given as the source filed them. No cut-off for these calls is given here.

Experiments:
Bacillus subtilis = test: Antimicrobial activity against Bacillus subtilis; assay type: functional, organism-based
Staphylococcus aureus = test: Antimicrobial activity against Staphylococcus aureus; assay type: functional, organism-based
Artemia salina = test: Toxicity in Artemia salina; assay type: organism-based; details: in vivo
[1] = tested on: Agrobacterium tumefaciens; test: Antitumor activity against Agrobacterium tumefaciens-induced crown gall tumor by potato disk assay; assay type: functional

Structure (SMILES)	Activity (Bacillus subtilis)	Activity (Staphylococcus aureus)	LC50 (Artemia salina) [ppm]	inhibition (INH) [1] [%]
CC(=O)/C=C/C1=CC[C@@H]2[C@H](C)C(=O)O[C@@H]2C[C@@H]1C	inactive	inactive	–	–
C=C1C(=O)O[C@@H]2CC(=C)[C@@H]3CC=C(C)[C@@H]3C[C@H]12 [GUAIANOLIDE ZINIOLIDE]	–	–	14	49
